In one series the test system is SET-2 cells. It is filed as in vivo. The following applies: for Tumor inhibition rate (%): SET-2 model, oral. On the procedure:
(§1) MV4-11 cells and SET-2 cells were used to establish a mouse xenograft model to investigate the efficacy. NOD/SCID immunocompromised mice (purchased from Beijing Huafukang Biotechnology Co., Ltd.) were received and acclimated to the environment until they were normalized in diet and activity. MV4-11 and SET-2 cells were routinely incubated and grew to 80% fusion degree. Then, the cells were collected and counted on a blood cell counting plate, with the cell concentration adjusted to 3×10^7 cells/mL. After the cells were collected, 100 μL of cell suspension was inoculated subcutaneously on the back of mice. When the tumor volume reached 100 mm^3, the drug administration was started. The dosage regimen was oral administration every day. […].

A further series concerns MV4-11 cells. It counts as in vivo. The following applies: for Tumor inhibition rate (%): MV4-11 model, oral, QD × 6. On the procedure:
as §1

Another series deals with SET-2 cells (JAK2 V617F). The series is described as follows: Inhibition of cell proliferation by MTT experiment, SET-2. It is filed as cell-based. The following applies: Homo sapiens, SET-2, 72 h, read-out: IC50 value on cell proliferation inhibition, SET-2 (V617F). The essentials: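 MTT assay in MV4-11, MOLM-13 (FLT3-ITD) and SET-2 (JAK2 V617F) cells at 10,000–15,000 cells/well in IMDM with 10% FBS. Cells are exposed to compound for 72 h at 37 °C, then to MTT for 1–3 h. IC50 is fitted from inhibition rates across concentrations.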

A further series concerns the target T1, JAK3 (Homo sapiens, UniProt P52333).
T1 construct: purchased Eurofins
T1 sequence (P52333 1-1124): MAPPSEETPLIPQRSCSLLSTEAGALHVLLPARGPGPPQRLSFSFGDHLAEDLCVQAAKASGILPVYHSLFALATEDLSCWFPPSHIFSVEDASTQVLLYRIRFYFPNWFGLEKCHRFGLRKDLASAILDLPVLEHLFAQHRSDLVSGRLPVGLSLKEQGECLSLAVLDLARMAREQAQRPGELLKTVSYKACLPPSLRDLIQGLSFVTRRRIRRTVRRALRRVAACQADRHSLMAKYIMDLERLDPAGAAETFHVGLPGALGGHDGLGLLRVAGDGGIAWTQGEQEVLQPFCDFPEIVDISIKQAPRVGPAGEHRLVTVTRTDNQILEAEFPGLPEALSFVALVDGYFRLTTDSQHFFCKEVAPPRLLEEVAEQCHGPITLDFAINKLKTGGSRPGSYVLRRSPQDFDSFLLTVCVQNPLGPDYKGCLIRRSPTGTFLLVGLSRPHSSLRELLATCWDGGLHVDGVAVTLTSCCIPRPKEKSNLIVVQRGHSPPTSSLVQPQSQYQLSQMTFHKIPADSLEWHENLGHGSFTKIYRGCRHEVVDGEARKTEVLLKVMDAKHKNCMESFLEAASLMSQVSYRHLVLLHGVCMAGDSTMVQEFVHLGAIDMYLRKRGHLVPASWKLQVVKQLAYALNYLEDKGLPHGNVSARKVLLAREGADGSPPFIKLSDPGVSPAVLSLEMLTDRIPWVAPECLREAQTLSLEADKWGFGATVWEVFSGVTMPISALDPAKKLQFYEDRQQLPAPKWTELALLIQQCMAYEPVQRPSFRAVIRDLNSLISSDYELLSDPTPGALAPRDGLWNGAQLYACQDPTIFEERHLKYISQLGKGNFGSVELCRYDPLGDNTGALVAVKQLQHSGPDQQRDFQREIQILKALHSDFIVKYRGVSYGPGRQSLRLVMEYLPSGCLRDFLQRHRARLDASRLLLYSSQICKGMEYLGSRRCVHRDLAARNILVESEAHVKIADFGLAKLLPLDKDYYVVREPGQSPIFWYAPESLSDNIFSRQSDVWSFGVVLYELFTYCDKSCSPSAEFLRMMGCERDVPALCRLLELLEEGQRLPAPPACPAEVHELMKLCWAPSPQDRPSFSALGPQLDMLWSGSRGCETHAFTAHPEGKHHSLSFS
The experiment in a line: In vitro kinase activity experiment, JAK3. It is filed as biochemical. On the procedure: (§2) Buffer solution ([…], pH 7.0, 0.2 mm EDTA, 10 mM mncl2), kinase to be tested, substrate of kinase to be tested, 10 mM magnesium acetate and γ33P-ATP solution, and compounds with different concentrations were added to a reaction tube in turn, then MgATP was added to initiate the enzyme reaction process, and incubated at room temperature for 40 min. Then, the reaction was terminated with 5 μl of […], and 10 μl of the reaction solution was titrated onto the Filtermat A membrane, washed with 75 mM phosphate solution for three times, each time for 5 min., and then washed with methanol once. Finally, the Filtermat A membrane was dried and the scintillation count was carried out.

For series [1], the system named is JAK2/FLT3 signaling pathway related proteins. The series is described as follows: Immunoblot experiment on JAK2/FLT3 signaling pathway related proteins in MV4-11 and SET-2 cells. It is filed as cell-based. The following applies: different concentrations. The method, then:
The cells were subjected to SDS-PAGE gel electrophoresis with 8%-16% gradient gels, and constant flow membrane was carried out. The cells were blocked with 5% skim milk, and the primary antibody FLT3 (CST, 3462S), […] (CST, 3464S), STAT5 (CST, 9363S), […] (Abcam, ab32364), JAK2 (Proteintech, 02802), p-JAK2 (Abcam, ab32101), JAK1 (Santa Cruz Biotechnology, sc-136225), […] (Santa Cruz Biotechnology, sc-101716), GAPDH (Abways, AB0037), Rb (Abways, CY5661), […] (Abways, CY5260) was incubated. The next day, the cells were washed with PBS/T for three times, horseradish enzyme-labeled goat anti-mouse second antibody (Abways, AB0102) and horseradish enzyme-labeled goat anti-rabbit second antibody (Abways, AB0101) were incubated at room temperature, then the cells were washed with PBS/T for three times, and developed by the addition of the ECL chemiluminescent substrate.

The target in the next series is T2, JAK1 (Homo sapiens, UniProt P23458).
T2 construct: purchased Eurofins
T2 sequence (P23458 whole entry): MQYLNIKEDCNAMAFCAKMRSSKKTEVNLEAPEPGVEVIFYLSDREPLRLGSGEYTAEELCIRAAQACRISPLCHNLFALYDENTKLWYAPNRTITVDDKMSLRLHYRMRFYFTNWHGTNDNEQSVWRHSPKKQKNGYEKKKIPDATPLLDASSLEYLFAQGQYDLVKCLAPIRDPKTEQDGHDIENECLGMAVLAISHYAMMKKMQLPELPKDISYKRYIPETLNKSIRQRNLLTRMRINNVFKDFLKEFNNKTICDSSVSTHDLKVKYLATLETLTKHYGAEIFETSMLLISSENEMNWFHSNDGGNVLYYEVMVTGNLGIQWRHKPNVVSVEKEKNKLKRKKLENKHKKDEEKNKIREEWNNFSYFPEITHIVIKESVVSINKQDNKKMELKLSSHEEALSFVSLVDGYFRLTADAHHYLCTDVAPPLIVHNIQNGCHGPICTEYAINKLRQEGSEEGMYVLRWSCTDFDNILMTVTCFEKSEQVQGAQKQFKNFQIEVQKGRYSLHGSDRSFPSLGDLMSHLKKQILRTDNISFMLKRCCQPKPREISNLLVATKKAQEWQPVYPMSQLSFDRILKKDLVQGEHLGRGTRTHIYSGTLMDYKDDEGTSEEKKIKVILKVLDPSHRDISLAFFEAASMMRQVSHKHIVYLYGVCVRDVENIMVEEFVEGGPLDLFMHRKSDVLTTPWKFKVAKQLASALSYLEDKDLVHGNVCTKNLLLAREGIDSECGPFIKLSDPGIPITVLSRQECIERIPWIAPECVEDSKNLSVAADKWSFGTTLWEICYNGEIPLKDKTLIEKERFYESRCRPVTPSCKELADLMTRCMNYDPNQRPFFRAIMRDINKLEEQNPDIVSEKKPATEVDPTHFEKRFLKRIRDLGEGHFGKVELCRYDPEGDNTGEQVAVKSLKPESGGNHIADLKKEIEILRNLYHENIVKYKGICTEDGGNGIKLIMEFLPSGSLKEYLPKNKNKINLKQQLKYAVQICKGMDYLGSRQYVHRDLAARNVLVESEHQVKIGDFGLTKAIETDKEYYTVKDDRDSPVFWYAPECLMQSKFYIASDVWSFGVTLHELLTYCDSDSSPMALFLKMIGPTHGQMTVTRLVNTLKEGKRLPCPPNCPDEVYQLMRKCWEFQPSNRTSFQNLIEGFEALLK
The series is described as follows: In vitro kinase activity experiment, JAK1. It is filed as biochemical. The method, then:
as §2

Read-outs that look alike come from different tables or passages of the source.

For the molecule `Cc1cnc(Nc2ccc(N3CCC(N(C)CCO)CC3)c(F)c2)nc1-c1cnn(C(C)C)c1` [CLJ-44, 5-methyl-N-(3-fluoro-4-(4-N-hydroxyethyl-4-N-methylaminopiperidine-1-yl)phenyl)-4-(1-isopropyl-1H-pyrazole-4-yl) pyrimidine-2-amine], the “Tumor inhibition rate (%)” value was 66% in the series on SET-2 cells (30 mg/kg), 85% in the series with SET-2 cells (60 mg/kg), 58% in the series with MV4-11 cells (30 mg/kg) and 93% in the series with MV4-11 cells (60 mg/kg). The “tolerability, effect on body weight” value was “well tolerated and has no adverse effect on body weight” in the series on SET-2 cells (mouse, in vivo); “well tolerated and has no adverse effect on body weight” with MV4-11 cells (mouse, in vivo). Also, the IC50 with SET-2 cells (JAK2 V617F) is 10 to 100 nM; at JAK3, 46 nM; against JAK1, 37 nM. Besides, in series [1], the “autophosphorylation of JAK2/FLT3 (immunoblot)” value is “significantly inhibited the autophosphorylation of JAK2/FLT3 in a dose-dependent relationship”. In series [1], the “effect on JAK subtype JAK1 (immunoblot)” value is “weak effect”.

Values taken from patent US12428394B2, “2,4-disubstituted pyrimidine derivative, preparation method therefor and use thereof” (CHENGDU ZENITAR BIOMEDICAL TECHNOLOGY CO., LTD., priority 2019, dated 2025).
